Drawing on US8883782B2, “Spiro-tetracyclic ring compounds as beta-secretase modulators and methods of use” (Amgen Inc., priority 2010, dated 2014), this text covers IC50 for 20 compounds.

The target of test [1] is Beta Secretase enzyme (BACE) (Homo sapiens, UniProt P56817). Description: In vitro enzymatic BACE FRET (fluorescence resonance energy transfer) assay. In kind it is biochemical. As to conditions: average IC50, enzyme assay; read-out: BACE 1 FRET assay. An outline of the steps: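 Fluorescence read after Tris quench (pH raised to neutrality) of a one-hour BACE reaction. Buffer: acetate 0.05 M, pH 4.2, with 100 uM genapol and 10% DMSO final; started by adding 50 nM FRET peptide substrate spanning the cleavage site.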

Test [2] concerns Aβ40 in conditioned medium of cells stably expressing Amyloid Precursor Protein (APP). Description: In vitro BACE cell-based assay (Aβ40 in conditioned medium, sandwich ELISA). As to conditions: Homo sapiens, HEK293, average IC50, HEK cells; read-out: HEK cell assay. The essentials: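 Conditioned medium from stably APP-expressing cells treated with compound dose series is assayed for Aβ40 by sandwich ELISA with time-resolved fluorescence detection. IC50 is calculated from percent inhibition of Aβ40 against compound concentration.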

pIC50: −log10 of the molar value. Where only a bound is given, the exact number is not on record here.

Sequence of Beta Secretase enzyme (BACE) (P56817 46-501, species assumed): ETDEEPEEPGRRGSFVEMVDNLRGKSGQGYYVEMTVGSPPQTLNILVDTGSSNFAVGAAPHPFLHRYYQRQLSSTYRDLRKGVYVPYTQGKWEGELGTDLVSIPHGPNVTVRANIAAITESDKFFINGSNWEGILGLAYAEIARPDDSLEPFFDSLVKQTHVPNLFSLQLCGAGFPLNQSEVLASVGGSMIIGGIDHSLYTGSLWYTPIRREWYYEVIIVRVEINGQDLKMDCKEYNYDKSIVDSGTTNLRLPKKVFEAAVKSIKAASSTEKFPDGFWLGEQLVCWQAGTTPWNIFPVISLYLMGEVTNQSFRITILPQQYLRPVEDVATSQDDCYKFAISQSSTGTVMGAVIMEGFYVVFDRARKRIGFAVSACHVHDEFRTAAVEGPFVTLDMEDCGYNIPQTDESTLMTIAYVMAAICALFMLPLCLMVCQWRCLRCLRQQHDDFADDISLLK

In the case of `CC#Cc1cncc(-c2ccc3c(c2)[C@@]2(COC(N)=N2)c2cc(OCC4(C)COC4)cc(F)c2O3)c1` [Example 949, (4S)-4′-fluoro-2′-((3-methyl-3-oxetanyl)methoxy)-7′-(5-(1-propyn-1-yl)-3-pyridinyl)spiro[1,3-oxazole-4,9′-xanthen]-2-amine], the values for the pIC50 in test [1] and in test [2] were 9.40 and 8.52, respectively.

For `CC#Cc1cncc(-c2ccc3c(c2)[C@@]2(COC(N)=N2)c2cc(C4=CCCOC4)cnc2O3)c1` [Example 950, (5S)-3-(5,6-dihydro-2H-pyran-3-yl)-7-(5-(1-propyn-1-yl)-3-pyridinyl)spiro[chromeno[2,3-b]pyridine-5,4′-[1,3]oxazol]-2′-amine], the figures for the pIC50 in test [1] and in test [2] were 9.52 and 8.70, respectively.

`CC#Cc1cncc(-c2ccc3c(c2)[C@@]2(COC(N)=N2)c2cc(N4CCOCC4)cc(F)c2O3)c1` [Example 952, (4S)-4′-fluoro-2′-(4-morpholinyl)-7′-(5-(1-propyn-1-yl)-3-pyridinyl)spiro[1,3-oxazole-4,9′-xanthen]-2-amine]: the pIC50 in test [1] was 9.22; in test [2], 8.40.

On to `CC#Cc1cnc(F)c(-c2ccc3c(c2)[C@@]2(COC(N)=N2)c2cc(C4=CCOCC4)cnc2O3)c1` [Example 953, (5S)-3-(3,6-dihydro-2H-pyran-4-yl)-7-(2-fluoro-5-(1-propyn-1-yl)-3-pyridinyl)spiro[chromeno[2,3-b]pyridine-5,4′-[1,3]oxazol]-2′-amine], for which the pIC50 in test [1] was 9.52; in test [2], 8.40.

In the case of `CC#Cc1cnc(F)c(-c2ccc3c(c2)[C@@]2(COC(N)=N2)c2cc(-c4cnn(C)c4)cnc2O3)c1` [Example 954, (5S)-7-(2-fluoro-5-(1-propyn-1-yl)-3-pyridinyl)-3-(1-methyl-1H-pyrazol-4-yl)spiro[chromeno[2,3-b]pyridine-5,4′-[1,3]oxazol]-2′-amine], the pIC50 in test [1] was 9.52; in test [2], 8.52.

Regarding `CC#Cc1cnc(F)c(-c2ccc3c(c2)[C@@]2(COC(N)=N2)c2cc(C#CC4(C)COC4)cnc2O3)c1` [Example 955, (5S)-7-(2-fluoro-5-(1-propyn-1-yl)-3-pyridinyl)-3-((3-methyl-3-oxetanyl)ethynyl)spiro[chromeno[2,3-b]pyridine-5,4′-[1,3]oxazol]-2′-amine], the pIC50 in test [1] is 9.30; in test [2], 8.70.

Regarding `CC#Cc1cnc(F)c(-c2ccc3c(c2)[C@@]2(COC(N)=N2)c2cc(-c4ccnc(F)c4)cnc2O3)c1` [Example 956, (5S)-7-(2-fluoro-5-(1-propyn-1-yl)-3-pyridinyl)-3-(2-fluoro-4-pyridinyl)spiro[chromeno[2,3-b]pyridine-5,4′-[1,3]oxazol]-2′-amine], the pIC50 is 9.40 in test [1] and 8.22 in test [2].

As for `CC1(C#Cc2cc3c(cn2)Oc2ccc(-c4c(F)ccnc4F)cc2[C@@]32COC(N)=N2)COC1` [Example 957, (5S)-7-(2,4-difluoro-3-pyridinyl)-3-((3-methyl-3-oxetanyl)ethynyl)spiro[chromeno[2,3-c]pyridine-5,4′-[1,3]oxazol]-2′-amine], the values for the pIC50 in test [1] and in test [2] were 8.92 and 7.48, respectively.

On to `Cc1ccc(-c2cnc3c(c2)[C@]2(CSC(N)=N2)c2cc(-c4cccnc4)ccc2O3)cn1` [Example 958, (5S)-3-(6-methyl-3-pyridinyl)-7-(3-pyridinyl)spiro[chromeno[2,3-b]pyridine-5,4′-[1,3]thiazol]-2′-amine], for which the pIC50 is 8.82 in test [1] and 7.72 in test [2].

For `NC1=N[C@@]2(CS1)c1cc(-c3cccnc3)ccc1Oc1ncc(C3=CCCOC3)cc12` [Example 959, (5S)-3-(5,6-dihydro-2H-pyran-3-yl)-7-(3-pyridinyl)spiro[chromeno[2,3-b]pyridine-5,4′-[1,3]thiazol]-2′-amine], the pIC50 was 9.00 in test [1] and 7.89 in test [2].

For the compound `Cn1cc(-c2cnc3c(c2)[C@]2(CSC(N)=N2)c2cc(-c4cccnc4)ccc2O3)cn1` [Example 960, (5S)-3-(1-methyl-1H-pyrazol-4-yl)-7-(3-pyridinyl)spiro[chromeno[2,3-b]pyridine-5,4′-[1,3]thiazol]-2′-amine], the pIC50 in test [1] was 8.43; in test [2], 7.44.

As for `CC1(C#Cc2cnc3c(c2)[C@]2(CSC(N)=N2)c2cc(-c4ccc(F)nc4)ccc2O3)COC1` [Example 961, (5S)-7-(6-fluoro-3-pyridinyl)-3-((3-methyl-3-oxetanyl)ethynyl)spiro[chromeno[2,3-b]pyridine-5,4′-[1,3]thiazol]-2′-amine], the pIC50 in test [1] is 9.00; in test [2] it was 7.74.

Regarding `Cn1cc(-c2cnc3c(c2)[C@]2(CSC(N)=N2)c2cc(-c4ccc(F)nc4)ccc2O3)cn1` [Example 962, (5S)-7-(6-fluoro-3-pyridinyl)-3-(1-methyl-1H-pyrazol-4-yl)spiro[chromeno[2,3-b]pyridine-5,4′-[1,3]thiazol]-2′-amine], the pIC50 in test [1] is 8.27; in test [2], 7.19.

Consider `NC1=N[C@@]2(CS1)c1cc(-c3ccc(F)nc3)ccc1Oc1ncc(Br)cc12` [Example 963, (5S)-3-bromo-7-(6-fluoro-3-pyridinyl)spiro[chromeno[2,3-b]pyridine-5,4′-[1,3]thiazol]-2′-amine], for which the pIC50 in test [1] is 7.36; in test [2], 6.08.

With `CC1(C#Cc2cnc3c(c2)[C@]2(CSC(N)=N2)c2cc(-c4cncc(F)c4)ccc2O3)COC1` [Example 964, (5S)-7-(5-fluoro-3-pyridinyl)-3-((3-methyl-3-oxetanyl)ethynyl)spiro[chromeno[2,3-b]pyridine-5,4′-[1,3]thiazol]-2′-amine], the pIC50 is 9.05 in test [1] and 7.82 in test [2].

Consider `NC1=N[C@@]2(CS1)c1cc(-c3cncc(F)c3)ccc1Oc1ncc(Br)cc12` [Example 965, (5S)-3-bromo-7-(5-fluoro-3-pyridinyl)spiro[chromeno[2,3-b]pyridine-5,4′-[1,3]thiazol]-2′-amine], for which the pIC50 in test [1] was 7.63; in test [2] it was 6.11.

For `NC1=N[C@@]2(CS1)c1cc(-c3ccc(F)nc3)ccc1Oc1ncc(C3=CCOCC3)cc12` [Example 966, (5S)-3-(3,6-dihydro-2H-pyran-4-yl)-7-(6-fluoro-3-pyridinyl)spiro[chromeno[2,3-b]pyridine-5,4′-[1,3]thiazol]-2′-amine], the figures for the pIC50 in test [1] and in test [2] were 8.66 and 7.49, respectively.

On to `NC1=N[C@@]2(CO1)c1cc(OCc3ccccc3)ccc1Oc1ncc(C3=CCOCC3)cc12` [Example 967, (5S)-7-(benzyloxy)-3-(3,6-dihydro-2H-pyran-4-yl)spiro[chromeno[2,3-b]pyridine-5,4′-[1,3]oxazol]-2′-amine], for which the figures for the pIC50 in test [1] and in test [2] were 7.35 and 6.33, respectively.

With `C1=C(c2cnc3c(c2)[C@]2(COC(NCc4ccccc4)=N2)c2cc(OCc4ccccc4)ccc2O3)CCOC1` [Example 968, (5S)-N-benzyl-7-(benzyloxy)-3-(3,6-dihydro-2H-pyran-4-yl)spiro[chromeno[2,3-b]pyridine-5,4′-[1,3]oxazol]-2′-amine], the pIC50 in test [1] is 5.90; in test [2], at most 5.00.

For the compound `NC1=N[C@@]2(CO1)c1cc(O)ccc1Oc1ncc(C3=CCOCC3)cc12` [Example 969, (5S)-2′-amino-3-(3,6-dihydro-2H-pyran-4-yl)spiro[chromeno[2,3-b]pyridine-5,4′-[1,3]oxazol]-7-ol], the pIC50 is 6.08 in test [1] and at most 5.00 in test [2].
